Patent publication US9951064B2, “Azaindazole compounds as inhibitors of T790M containing EGFR mutants” (Genentech, Inc., priority 2013, dated 2018)

Legend:
[1] = biological target: T1, EGFR T790M L858R (Homo sapiens, UniProt P00533, L858R/T790M); assay: EGFR T790M L858R biochemical assay (Caliper mobility shift); conditions: 5 μM ATP; apparent Ki (Morrison fit) converted by Cheng-Prusoff, Km of ATP 1.3 μM
T1 construct: purchased Life Technologies PV4879
Method in brief: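 Reactions run 30 minutes at room temperature (22 °C), stopped with 80 mM EDTA. Phosphorylated product and substrate separated electrophoretically and quantified by Caliper mobility shift.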

[2] = biological target: T2, EGFR del746-750 T790M (Homo sapiens, UniProt P00533, DEL746-750/T790M); assay: EGFR del746-750 T790M biochemical assay (Caliper mobility shift); conditions: 5 μM ATP; apparent Ki (Morrison fit) converted by Cheng-Prusoff, Km of ATP 2.1 μM; read-out: EGFR(T790M/d746-750) Ki
T2 construct: purchased Carna Biosciences 08-528
T2 sequence (P00533 with tags, fused parts or gaps DEL746-750/T790M limits assumed): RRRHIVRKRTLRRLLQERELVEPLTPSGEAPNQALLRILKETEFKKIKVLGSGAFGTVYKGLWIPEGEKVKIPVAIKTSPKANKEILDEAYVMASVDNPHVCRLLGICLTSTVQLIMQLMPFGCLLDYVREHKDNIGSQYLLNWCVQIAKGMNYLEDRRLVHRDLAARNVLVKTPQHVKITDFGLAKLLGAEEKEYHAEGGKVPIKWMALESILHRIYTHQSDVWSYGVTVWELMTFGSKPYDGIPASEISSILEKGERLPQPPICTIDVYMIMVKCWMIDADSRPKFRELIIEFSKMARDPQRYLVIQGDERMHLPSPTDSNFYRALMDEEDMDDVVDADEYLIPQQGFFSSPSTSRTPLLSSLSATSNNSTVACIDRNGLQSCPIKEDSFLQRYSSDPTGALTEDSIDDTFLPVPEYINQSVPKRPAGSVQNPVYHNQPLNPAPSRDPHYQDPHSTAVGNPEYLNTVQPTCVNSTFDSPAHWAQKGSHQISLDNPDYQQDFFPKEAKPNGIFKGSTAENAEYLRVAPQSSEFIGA
Method in brief: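 Kinase reactions ran 30 min at room temperature (22 °C), then were stopped with 80 mM EDTA. Phosphorylated product and substrate were separated electrophoretically and quantified by Caliper mobility shift.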

[3] = biological target: T3, phosphor-EGFR in H1975(L585R/T790M) mutant EGFR expressing cells (Homo sapiens, UniProt P00533, L858R/T790M); assay: H1975 pEGFR MSD cellular assay; type: cell-based; conditions: NCI-H1975 cells, serum starved, 1 hour compound incubation, pEGFR Tyr1068 MSD; read-out: HI975 pEGFR EC50
T3 construct: host or cells: NCI-H1975
T3 sequence (P00533 25-1210 T790M/L858R): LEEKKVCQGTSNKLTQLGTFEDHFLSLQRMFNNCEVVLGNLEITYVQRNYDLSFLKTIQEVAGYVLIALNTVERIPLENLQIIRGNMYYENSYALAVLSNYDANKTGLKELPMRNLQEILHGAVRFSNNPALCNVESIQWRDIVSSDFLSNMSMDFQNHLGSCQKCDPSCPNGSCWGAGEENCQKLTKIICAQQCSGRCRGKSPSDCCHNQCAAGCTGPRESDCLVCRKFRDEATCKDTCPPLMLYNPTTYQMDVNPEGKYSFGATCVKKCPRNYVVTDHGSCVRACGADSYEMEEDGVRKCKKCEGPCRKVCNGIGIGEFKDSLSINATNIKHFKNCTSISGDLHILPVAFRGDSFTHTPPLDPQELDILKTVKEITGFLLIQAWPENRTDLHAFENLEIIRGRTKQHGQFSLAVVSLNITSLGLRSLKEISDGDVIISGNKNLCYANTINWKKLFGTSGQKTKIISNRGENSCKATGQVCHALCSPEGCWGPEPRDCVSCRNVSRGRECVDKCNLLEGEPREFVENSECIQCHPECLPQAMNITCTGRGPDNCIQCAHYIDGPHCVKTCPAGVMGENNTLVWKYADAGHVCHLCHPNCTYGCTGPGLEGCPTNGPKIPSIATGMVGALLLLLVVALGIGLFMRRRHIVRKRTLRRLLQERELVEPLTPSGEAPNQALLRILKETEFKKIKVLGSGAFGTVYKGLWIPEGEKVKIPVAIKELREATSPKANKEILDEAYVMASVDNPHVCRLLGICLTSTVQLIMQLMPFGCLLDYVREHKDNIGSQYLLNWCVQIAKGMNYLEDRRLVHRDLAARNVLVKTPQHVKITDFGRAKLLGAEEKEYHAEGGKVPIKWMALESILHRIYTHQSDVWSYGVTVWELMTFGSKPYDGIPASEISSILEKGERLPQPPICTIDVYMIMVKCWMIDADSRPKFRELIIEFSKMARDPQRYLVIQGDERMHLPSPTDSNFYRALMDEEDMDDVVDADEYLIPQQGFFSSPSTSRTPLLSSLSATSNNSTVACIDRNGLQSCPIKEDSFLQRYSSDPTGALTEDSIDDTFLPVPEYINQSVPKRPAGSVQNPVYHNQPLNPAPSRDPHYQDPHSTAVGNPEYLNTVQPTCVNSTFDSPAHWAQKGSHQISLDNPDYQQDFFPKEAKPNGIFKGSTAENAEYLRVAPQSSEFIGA
Method in brief: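 NCI-H1975 cells, 30,000/well, serum-starved overnight, then treated 1 hour at 37° C with serially diluted compounds in serum-free medium (0.5% DMSO). Lysates captured on anti-phospho-EGFR plates overnight at 4° C, detected with SULFO-TAG anti-total EGFR by electrochemiluminescence. Inhibition vs untreated controls; EC50 from 4-parameter logistic fit.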

[4] = system: H1975 (EGFR T790M/L858R) cell proliferation; assay: H1975 proliferation assay (Cell Titer-Glo); type: cell-based; conditions: Homo sapiens, NCI-H1975, 72 h, NCI-H1975 cells, 72 hour incubation, read-out: H1975 antiproliferative EC50
Experimental: H1975 Proliferation Assays
All cell culture reagents were purchased from Invitrogen/Gibco. Cells are cultured at 37° C. at 5% CO2 and split as recommended by ATCC.

T1 sequence (P00533 25-1210 T790M/L858R): as above

SMILES | Ki [1] [nM] | Ki [2] [nM] | EC50 [3] [nM] | EC50 [4] [nM]
CC(C)n1nc(NC(C)(C)C#N)c2cnc(Nc3ccnc(N4CC[C@H](O)[C@H](F)C4)n3)cc21 (racemic) [Example 183, (±)-2-(6-(2-(cis-3-Fluoro-4-hydroxypiperidin-1-yl)pyrimidin-4-ylamino)-1-isopropyl-1H-pyrazolo[4,3-c]pyridin-3-ylamino)-2-methylpropanenitrile] | 34.7 | 76.7 | 1650 | 8270
CCN1CCN(c2nn(C(C)C)c3cc(Nc4ccnc(-c5cnn(S(=O)(=O)C6CC6)c5)n4)ncc23)C1=O [Example 151, 1-(6-(2-(1-(Cyclopropylsulfonyl)-1H-pyrazol-4-yl)pyrimidin-4-ylamino)-1-isopropyl-1H-pyrazolo[4,3-c]pyridin-3-yl)-3-ethylimidazolidin-2-one] | 8.7 | 6.3 | 363 | 929
CCC(C)n1nc(N2CCCC2=O)c2cnc(Nc3ccnc(N4CCC(C)(O)CC4)n3)cc21 (centres unmarked) [Example 204, 1-(1-(sec-Butyl)-6-((2-(4-hydroxy-4-methylpiperidin-1-yl)pyrimidin-4-yl)amino)-1H-pyrazolo[4,3-c]pyridin-3-yl)pyrrolidin-2-one] | 2.2 | 4.5 | 224 | 569
CC(C)n1nc(N2CC(C(C)(C)O)C2)c2cnc(Nc3ccnc(-c4cnn(S(=O)(=O)C5CC5)c4)n3)cc21 [Example 149, 2-(1-(6-(2-(1-(Cyclopropylsulfonyl)-1H-pyrazol-4-yl)pyrimidin-4-ylamino)-1-isopropyl-1H-pyrazolo[4,3-c]pyridin-3-yl)azetidin-3-yl)propan-2-ol] | 2.1 | 1.2 | 51.9 | 423
CC1CN(c2nn(C(C)C)c3cc(Nc4ccnc(N5CC[C@H](O)[C@H](F)C5)n4)ncc23)C(=O)N1 (relative stereo) [Example 127, 1-(6-(2-(cis-3-Fluoro-4-hydroxypiperidin-1-yl)pyrimidin-4-ylamino)-1-isopropyl-1H-pyrazolo[4,3-c]pyridin-3-yl)-4-methylimidazolidin-2-one] | 2.5 | 6 | 466 | 1380
CC(C)n1nc(N2CCO[C@H](CO)C2)c2cnc(Nc3ccnc(N4CC[C@H](O)[C@H](F)C4)n3)cc21 [Example 132, cis-3-Fluoro-1-(4-(3-((S)-2-(hydroxymethyl)morpholino)-1-isopropyl-1H-pyrazolo[4,3-c]pyridin-6-ylamino)pyrimidin-2-yl)piperidin-4-ol] | 4.9 | 14.6 | 1430 | > 10000
CC[C@@H](C)n1nc(N2CC[C@@H](O)C2)c2cnc(Nc3ccnc(N4CCC5(CC4)CNC(=O)CO5)n3)cc21 (relative stereo) [Example 208, 9-(4-((1-((R*)-sec-Butyl)-3-((R)-3-hydroxypyrrolidin-1-yl)-1H-pyrazolo[4,3-c]pyridin-6-yl)amino)pyrimidin-2-yl)-1-oxa-4,9-diazaspiro[5.5]undecan-3-one] | 3.8 | 10.1 | 1200 | 9130
CCC(C)n1nc(N2CC3(COC3)C2)c2cnc(Nc3ccnc(OCC(C)(C)S(C)(=O)=O)n3)cc21 (racemic) [Example 97, [1-(sec-Butyl)-3-(2-oxa-6-azaspiro[3.3]hept-6-yl)-1H-pyrazolo[4,3-c]pyridin-6-yl]-[2-(2-methanesulfonyl-2-methylpropoxy)pyrimidin-4-yl]amine] | 3.2 | 5.2 | 233 | 1130
CC(C)n1nc(N2CC[C@@H](N)C2=O)c2cnc(Nc3ccnc(N4CCC(C)(O)CC4)n3)cc21 [Example 158, (R)-3-Amino-1-(6-(2-(4-hydroxy-4-methylpiperidin-1-yl)pyrimidin-4-ylamino)-1-isopropyl-1H-pyrazolo[4,3-c]pyridin-3-yl)pyrrolidin-2-one] | 18.5 | 50.9 | 1300 | 8120
CCC(C)n1nc(N2CCNC2=O)c2cnc(Nc3ccnc(N4CCC(S(C)(=O)=O)CC4)n3)cc21 (racemic) [Example 102, 1-{1-sec-Butyl-6-[2-(4-methanesulfonylpiperidin-1-yl)pyrimidin-4-ylamino]-1H-pyrazolo[4,3-c]pyridin-3-yl}imidazolidin-2-one] | 2.2 | 12.4 | 710 | 1150
CC[C@H](C)n1nc(N2CC3(COC3)C2)c2cnc(Nc3ccnc(OCC(C)(C)S(C)(=O)=O)n3)cc21 [Example 71, [1-((S)-sec-Butyl)-3-(2-oxa-6-azaspiro[3.3]hept-6-yl)-1H-pyrazolo[4,3-c]pyridin-6-yl]-[2-(2-methanesulfonyl-2-methylpropoxy)pyrimidin-4-yl]amine] | 4.7 | 13.2 | 256 | 785
CC(C)n1nc(NCC(F)(F)F)c2cnc(Nc3ccnc(-c4cnn(S(=O)(=O)C5CC5)c4)n3)cc21 [Example 181, N^6-(2-(1-(cyclopropylsulfonyl)-1H-pyrazol-4-yl)pyrimidin-4-yl)-1-isopropyl-N^3-(2,2,2-trifluoroethyl)-1H-pyrazolo[4,3-c]pyridine-3,6-diamine] | 8.2 | 10.8 | 3260 | > 10000
CCC(C)n1nc(N2CCNC2=O)c2cnc(Nc3ccnc(NCC(C)(C)S(C)(=O)=O)n3)cc21 (racemic) [Example 101, 1-{1-sec-Butyl-6-[2-(2-methanesulfonyl-2-methylpropylamino)pyrimidin-4-ylamino]-1H-pyrazolo[4,3-c]pyridin-3-yl}imidazolidin-2-one] | 2.3 | 2.4 | 568 | 1830

Compounds with a lower Ki [1], results first:

Ki [1] [nM] | Ki [2] [nM] | EC50 [3] [nM] | EC50 [4] [nM] | SMILES
1.6 | 2.7 | 89.2 | 769 | C[C@H](n1nc(N2CC[C@@H](O)C2)c2cnc(Nc3ccnc(N4CC[C@H](O)[C@H](F)C4)n3)cc21)C(F)(F)F (relative stereo) [Example 141, (±)-cis-3-Fluoro-1-(4-(3-((R)-3-hydroxypyrrolidin-1-yl)-1-((S*)-1,1,1-trifluoropropan-2-yl)-1H-pyrazolo[4,3-c]pyridin-6-ylamino)pyrimidin-2-yl)piperidin-4-ol]
1.4 | 1.2 | 34.2 | 825 | CC(C)NC(=O)C1CN(c2nn(C(C)C)c3cc(Nc4ccnc(-c5cnn(S(=O)(=O)C6CC6)c5)n4)ncc23)C1 [Example 169, 1-(6-(2-(1-(Cyclopropylsulfonyl)-1H-pyrazol-4-yl)pyrimidin-4-ylamino)-1-isopropyl-1H-pyrazolo[4,3-c]pyridin-3-yl)-N-isopropylazetidine-3-carboxamide]
1.2 | 2.8 | 26.6 | 380 | COC1CCN(c2nccc(Nc3cc4c(cn3)c(N3CCCC3)nn4C(C)C)n2)CC1 [Example 15, 1-Isopropyl-N-(2-(4-methoxypiperidin-1-yl)pyrimidin-4-yl)-3-(pyrrolidin-1-yl)-1H-pyrazolo[4,3-c]pyridin-6-amine]
1.1 | 0.9 | 221 | 1790 | CC(C)n1nc(N2CCC3(CNC(=O)C3)C2)c2cnc(Nc3ccnc(-c4cnn(S(=O)(=O)C5CC5)c4)n3)cc21 (centres unmarked) [Example 115, 7-(6-((2-(1-(Cyclopropylsulfonyl)-1H-pyrazol-4-yl)pyrimidin-4-yl)amino)-1-isopropyl-1H-pyrazolo[4,3-c]pyridin-3-yl)-2,7-diazaspiro[4.4]nonan-3-one]
1 | 0.9 | 28.9 | 144 | CC(C)n1nc(N2CC(C#N)C2)c2cnc(Nc3ccnc(-c4cnn(S(=O)(=O)C5CC5)c4)n3)cc21 [Example 155, 1-(6-(2-(1-(Cyclopropylsulfonyl)-1H-pyrazol-4-yl)pyrimidin-4-ylamino)-1-isopropyl-1H-pyrazolo[4,3-c]pyridin-3-yl)azetidine-3-carbonitrile]
1 | 0.8 | 56.6 | 484 | CCNC(=O)C1CN(c2nn(C(C)C)c3cc(Nc4ccnc(-c5cnn(S(=O)(=O)C6CC6)c5)n4)ncc23)C1 [Example 162, 1-(6-(2-(1-(Cyclopropylsulfonyl)-1H-pyrazol-4-yl)pyrimidin-4-ylamino)-1-isopropyl-1H-pyrazolo[4,3-c]pyridin-3-yl)-N-ethylazetidine-3-carboxamide]
0.7 | 0.7 | 248 | 660 | CC(C)n1nc(N2CC(O)(CO)C2)c2cnc(Nc3ccnc(-c4cnn(S(=O)(=O)C5CC5)c4)n3)cc21 [Example 124, 1-(6-(2-(1-(Cyclopropylsulfonyl)-1H-pyrazol-4-yl)pyrimidin-4-ylamino)-1-isopropyl-1H-pyrazolo[4,3-c]pyridin-3-yl)-3-(hydroxymethyl)azetidin-3-ol]
